Measurements: publication PMC3509527, “Leucettamols, Bifunctionalized Marine Sphingoids, Act as Modulators of TRPA1 and TRPM8 Channels” (Marine Drugs, 2012)

Columns and labels:
Format in all cases: cell-based
rat TRPM8 channel = molecular target: T1, rat TRPM8 channel (Rattus norvegicus, UniProt Q8R455); experiment: Inhibition of icilin-induced [Ca2+]i elevation in TRPM8-HEK-293 cells; settings: 5-min preincubation, against icilin 0.25 μM
T1 construct: expressed in transfected cells; host or cells: HEK-293
T1 sequence (Q8R455 whole entry): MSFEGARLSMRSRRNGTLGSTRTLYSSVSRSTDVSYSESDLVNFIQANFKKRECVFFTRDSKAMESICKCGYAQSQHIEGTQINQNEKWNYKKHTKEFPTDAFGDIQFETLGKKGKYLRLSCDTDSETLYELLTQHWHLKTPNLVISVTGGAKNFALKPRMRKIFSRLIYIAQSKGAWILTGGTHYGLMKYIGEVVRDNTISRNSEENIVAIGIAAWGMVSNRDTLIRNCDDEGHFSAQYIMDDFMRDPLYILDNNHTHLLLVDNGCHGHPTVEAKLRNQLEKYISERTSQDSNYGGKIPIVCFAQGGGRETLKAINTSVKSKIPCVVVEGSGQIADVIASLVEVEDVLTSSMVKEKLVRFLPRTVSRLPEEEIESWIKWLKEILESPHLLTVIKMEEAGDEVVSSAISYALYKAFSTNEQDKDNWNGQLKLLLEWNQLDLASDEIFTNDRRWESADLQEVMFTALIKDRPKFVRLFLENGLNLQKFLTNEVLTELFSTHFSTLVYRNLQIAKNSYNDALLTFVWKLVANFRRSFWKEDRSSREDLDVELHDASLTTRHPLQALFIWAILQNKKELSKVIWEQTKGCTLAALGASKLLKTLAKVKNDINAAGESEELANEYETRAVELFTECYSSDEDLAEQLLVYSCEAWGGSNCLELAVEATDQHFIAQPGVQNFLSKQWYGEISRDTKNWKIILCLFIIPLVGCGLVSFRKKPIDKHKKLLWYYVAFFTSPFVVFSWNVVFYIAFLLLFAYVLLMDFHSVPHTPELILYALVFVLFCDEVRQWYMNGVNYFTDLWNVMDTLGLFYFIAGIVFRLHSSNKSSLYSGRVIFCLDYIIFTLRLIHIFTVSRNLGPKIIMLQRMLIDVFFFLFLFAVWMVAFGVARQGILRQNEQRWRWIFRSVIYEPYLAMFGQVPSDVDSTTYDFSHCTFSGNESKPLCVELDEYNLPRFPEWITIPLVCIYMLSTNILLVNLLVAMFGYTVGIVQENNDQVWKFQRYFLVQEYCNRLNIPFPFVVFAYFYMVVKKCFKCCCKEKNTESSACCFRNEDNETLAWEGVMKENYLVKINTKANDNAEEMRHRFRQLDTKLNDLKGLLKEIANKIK
Description: (§1) Assays of TRP-mediated elevation of intracellular [Ca^2+] were performed as previously described. In the current study we have used wild-type HEK293 cells, cells stably expressing rat TRPA1 or human TRPV1 or rat TRPM8. HEK-293 cells stably over-expressing recombinant rat TRPA1, rat TRPM8 or human TRPV1 were selected by G-418 (Geneticin; 600 μg·mL^−1), grown on 100 mm diameter Petri dishes as monolayers in minimum essential medium supplemented with non-essential amino acids, 10% fetal bovine serum and 2 mM glutamine, and maintained under 5% CO2 at 37 °C. Stable expression of each channel was confirmed by real time quantitative PCR (not shown). On the day of the experiment, the cells were loaded for 1 h at 25 °C with the cytoplasmic calcium indicator Fluo-4AM (Invitrogen Carlsbad, CA, USA) 4 μM in DMSO containing 0.02% Pluronic F-127 (Invitrogen, Carlsbad, CA, USA). After loading, cells were washed twice in Tyrode’s buffer (145 mM NaCl, 2.5 mM KCl, 1.5 mM CaCl2, 1.2 mM MgCl2, 10 mM D-glucose and 10 mM HEPES, pH 7.4), re-suspended in the same buffer, and transferred to the quartz cuvette of the spectrofluorimeter (λex = 488 nm; λem = 516 nm) (Perkin-Elmer LS50B equipped with PTP-1 Fluorescence Peltier System; Perkin-Elmer Life and Analytical Sciences, Waltham, MA, USA) under continuous stirring. About 100,000 cells were used for each data point. Experiments were carried out at 22 °C by measuring cell fluorescence before and after the addition of various concentrations of test compounds. The values of the effect on [Ca^2+]i in wild-type (i.e., not transfected with any construct) HEK-293 cells were taken as baselines and subtracted from the values obtained from transfected cells. The potency of test compounds (EC50 values) was determined as the concentration of test substances required to produce half-maximal increases in [Ca^2+]i. The efficacy of the agonists on TRPA1 is expressed as a percentage of the effect obtained with 100 μM allylisothiocyanate (AITC). Antagonist/desensitizing behaviour was evaluated against icilin (0.25 μM) for TRPM8 and AITC (100 μM) for TRPA1 by adding the compounds in the quartz cuvette 5 min before stimulation of cells with agonists. Data are expressed as the concentration exerting a half-maximal inhibition of agonist effect (IC50). All determinations were at least performed in triplicate. Dose-response curves were fitted by a sigmoidal regression with variable slope. Curve fitting and parameter estimation were performed with GraphPad Prism (GraphPad Software Inc., San Diego, CA, USA).

rat TRPA1 channel [1] = molecular target: T2, rat TRPA1 channel (Rattus norvegicus, UniProt Q6RI86); experiment: TRPA1 activation, fluorometric intracellular [Ca2+]i in TRPA1-HEK293 cells; settings: for Efficacy TRPA1 (% AITC 100 μM) / EC50: rat TRPA1-HEK293 cells; for EC50: read-out: Potency EC50 TRPA1
T2 construct: expressed in transfected cells; host or cells: HEK-293
T2 sequence (Q6RI86 whole entry): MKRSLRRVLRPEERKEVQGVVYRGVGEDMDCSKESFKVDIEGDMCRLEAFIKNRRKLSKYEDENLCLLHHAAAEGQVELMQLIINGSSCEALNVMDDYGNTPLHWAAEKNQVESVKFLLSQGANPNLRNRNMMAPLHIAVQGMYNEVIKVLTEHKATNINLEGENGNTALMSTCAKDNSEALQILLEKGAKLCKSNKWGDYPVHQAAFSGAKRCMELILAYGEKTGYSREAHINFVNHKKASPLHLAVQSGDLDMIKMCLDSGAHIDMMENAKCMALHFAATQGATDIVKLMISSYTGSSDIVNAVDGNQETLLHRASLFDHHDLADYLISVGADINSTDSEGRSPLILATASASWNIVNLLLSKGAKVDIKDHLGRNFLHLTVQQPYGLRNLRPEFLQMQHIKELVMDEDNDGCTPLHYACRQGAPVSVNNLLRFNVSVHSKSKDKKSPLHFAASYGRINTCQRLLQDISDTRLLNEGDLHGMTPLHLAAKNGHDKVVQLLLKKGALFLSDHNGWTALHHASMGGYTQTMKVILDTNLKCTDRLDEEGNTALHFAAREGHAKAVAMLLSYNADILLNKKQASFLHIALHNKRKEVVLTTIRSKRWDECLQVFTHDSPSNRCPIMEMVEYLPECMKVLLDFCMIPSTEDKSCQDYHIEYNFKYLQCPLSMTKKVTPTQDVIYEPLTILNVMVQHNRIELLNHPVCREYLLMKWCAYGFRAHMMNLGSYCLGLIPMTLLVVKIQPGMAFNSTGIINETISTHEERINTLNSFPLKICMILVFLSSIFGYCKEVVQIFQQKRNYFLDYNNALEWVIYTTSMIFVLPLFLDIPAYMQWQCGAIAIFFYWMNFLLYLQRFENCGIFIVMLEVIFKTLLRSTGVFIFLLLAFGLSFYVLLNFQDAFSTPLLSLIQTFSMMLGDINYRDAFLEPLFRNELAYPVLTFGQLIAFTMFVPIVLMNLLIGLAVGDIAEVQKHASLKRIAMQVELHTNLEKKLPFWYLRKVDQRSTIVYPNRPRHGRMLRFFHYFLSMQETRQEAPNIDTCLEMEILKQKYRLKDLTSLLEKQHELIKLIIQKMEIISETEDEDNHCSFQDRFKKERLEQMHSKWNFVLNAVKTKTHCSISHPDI
Description: as §1, with “Stable expression of each channel was confirmed by real time quantitative PCR (not shown).” left out

rat TRPA1 channel [2] = molecular target: T2, rat TRPA1 channel; experiment: TRPA1 desensitization/inhibition of AITC-induced [Ca2+]i elevation in TRPA1-HEK-293 cells; settings: 5-min preincubation, against AITC 100 μM
Description: as §1, with “Stable expression of each channel was confirmed by real time quantitative PCR (not shown).” left out

[3] = molecular target: T3, human recombinant TRPV1 channel (Homo sapiens, UniProt Q8NER1); experiment: Elevation of intracellular Ca2+ in HEK-293 cells stably transfected with TRPV1; settings: at 10 μM
T3 construct: expressed in transfected cells; host or cells: HEK-293
T3 sequence (Q8NER1 whole entry): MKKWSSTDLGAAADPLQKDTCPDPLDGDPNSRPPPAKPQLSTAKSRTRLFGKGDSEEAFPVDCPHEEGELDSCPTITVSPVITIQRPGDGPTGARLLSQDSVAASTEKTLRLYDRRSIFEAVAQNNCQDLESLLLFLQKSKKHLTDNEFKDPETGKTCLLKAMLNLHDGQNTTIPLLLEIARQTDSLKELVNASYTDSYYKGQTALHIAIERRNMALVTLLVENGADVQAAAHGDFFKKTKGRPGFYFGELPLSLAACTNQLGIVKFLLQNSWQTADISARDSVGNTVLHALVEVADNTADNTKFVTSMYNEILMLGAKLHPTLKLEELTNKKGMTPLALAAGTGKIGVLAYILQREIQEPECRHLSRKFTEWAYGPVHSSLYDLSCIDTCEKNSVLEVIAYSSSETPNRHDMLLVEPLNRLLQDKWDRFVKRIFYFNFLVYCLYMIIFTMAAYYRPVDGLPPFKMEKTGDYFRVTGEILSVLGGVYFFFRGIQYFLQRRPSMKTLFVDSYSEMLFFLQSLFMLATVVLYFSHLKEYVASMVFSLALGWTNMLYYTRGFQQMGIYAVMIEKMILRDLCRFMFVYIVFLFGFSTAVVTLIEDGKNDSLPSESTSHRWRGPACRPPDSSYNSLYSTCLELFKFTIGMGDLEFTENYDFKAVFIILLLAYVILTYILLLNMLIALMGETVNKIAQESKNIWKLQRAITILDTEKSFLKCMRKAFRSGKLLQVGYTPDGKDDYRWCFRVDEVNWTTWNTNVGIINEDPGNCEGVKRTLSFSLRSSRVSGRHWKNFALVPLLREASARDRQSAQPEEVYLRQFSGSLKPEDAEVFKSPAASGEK
Description: Assays of TRP-mediated elevation of intracellular [Ca^2+] were performed as previously described. In the current study we have used wild-type HEK293 cells, cells stably expressing rat TRPA1 or human TRPV1 or rat TRPM8. HEK-293 cells stably over-expressing recombinant rat TRPA1, rat TRPM8 or human TRPV1 were selected by G-418 (Geneticin; 600 μg·mL^−1), grown on 100 mm diameter Petri dishes as monolayers in minimum essential medium supplemented with non-essential amino acids, 10% fetal bovine serum and 2 mM glutamine, and maintained under 5% CO2 at 37 °C. […] After loading, cells were washed twice in Tyrode’s buffer (145 mM NaCl, 2.5 mM KCl, 1.5 mM CaCl2, 1.2 mM MgCl2, 10 mM D-glucose and 10 mM HEPES, pH 7.4), re-suspended in the same buffer, and transferred to the quartz cuvette of the spectrofluorimeter (λex = 488 nm; λem = 516 nm) (Perkin-Elmer LS50B equipped with PTP-1 Fluorescence Peltier System; Perkin-Elmer Life and Analytical Sciences, Waltham, MA, USA) under continuous stirring. […] Experiments were carried out at 22 °C by measuring cell fluorescence before and after the addition of various concentrations of test compounds. […] The potency of test compounds (EC50 values) was determined as the concentration of test substances required to produce half-maximal increases in [Ca^2+]i. […] Data are expressed as the concentration exerting a half-maximal inhibition of agonist effect (IC50). […]

SMILES | IC50 (rat TRPM8 channel) | Reduction of efficacy at TRPA1 versus parent compound 1 (rat TRPA1 channel [1]) | Efficacy TRPA1 (% AITC 100 μM) (rat TRPA1 channel [1]) | EC50 (rat TRPA1 channel [1]) | IC50 (rat TRPA1 channel [2]) | Efficacy TRPV1 (% of 4 μM ionomycin) [3]
CC(=O)N[C@H](C)[C@H](C/C=C\C/C=C\C/C=C\C/C=C\C/C=C\C/C=C\CCCCCC[C@H](OC(C)=O)[C@@H](C)NC(C)=O)OC(C)=O [Compound 2] | 44.6 ± 10.1 µM |  |  |  |  | 
CC(=O)N[C@H](C)[C@H](C/C=C\CC(/C=C/C=C\C/C=C\C/C=C\C/C=C\CCCCCC[C@H](OC(C)=O)[C@@H](C)NC(C)=O)OC(C)=O)OC(C)=O (some centres unmarked) [Compound 4] | 65.7 ± 8.6 µM |  |  |  |  | 
C[C@@H](N)[C@@H](O)CCCCCCCCCCCCCCCCCCCCCCCC[C@H](O)[C@@H](C)N [Compound 5] | 6.5 ± 0.3 µM | 30% | 69.2 ± 0.1 % AITC 100 μM | 2.6 ± 0.1 µM | 6.5 ± 0.4 µM | 
CC(=O)N[C@H](C)[C@H](CCCCCCCCCCCCCCCCCCCCCCCC[C@H](OC(C)=O)[C@@H](C)NC(C)=O)OC(C)=O [Compound 6] | 29 ± 0.6 µM |  | 100.0 ± 9.7 % AITC 100 μM | 9.7 ± 3.3 µM | 12.7 ± 0.8 µM | 
C[C@@H](N)[C@@H](O)C/C=C\C/C=C\C/C=C\C/C=C\C/C=C\C/C=C\CCCCCC[C@H](O)[C@@H](C)N [Leucettamol A (1), leucettamol A] | 6.5 ± 0.3 µM |  | 101.9 ± 12.4 % AITC 100 μM | 3.7 ± 1.7 µM | 4.7 ± 0.2 µM | 
C[C@@H](N)[C@@H](O)C/C=C\CC(O)/C=C/C=C\C/C=C\C/C=C\C/C=C\CCCCCC[C@H](O)[C@@H](C)N (some centres unmarked) [Leucettamol B (3), leucettamol B] | 6.4 ± 1 µM |  | 103.3 ± 10.6 % AITC 100 μM | 5.9 ± 1.9 µM | 4.7 ± 0.9 µM | 
COc1cc(CNC(=O)CCCC/C=C/C(C)C)ccc1O [capsaicin] |  |  |  |  |  | 78.6 ± 2.4 % of 4 μM ionomycin
